{"source": "ChEMBL document CHEMBL5241058", "about": "“Pyrazole-based analogs as potential antibacterial agents against methicillin-resistance staphylococcus aureus (MRSA) and its SAR elucidation” (Eur J Med Chem, 2021)", "key": {"Staphylococcus aureus [1]": {"tested_on": "Staphylococcus aureus", "assay": "Antimicrobial activity against Methicillin-resistant Staphylococcus aureus ATCC 33592 assessed as bacterial growth inhibition incubated for 20 to 24 hrs by microdilution assay", "assay_type": "functional", "details": "time 20-24 hrs"}, "Staphylococcus aureus [2]": {"tested_on": "Staphylococcus aureus", "assay": "Antimicrobial activity against Methicillin-resistant Staphylococcus aureus assessed as bacterial growth inhibition by disc diffusion method", "assay_type": "functional"}, "Staphylococcus aureus [3]": {"tested_on": "Staphylococcus aureus", "assay": "Antimicrobial activity against Staphylococcus aureus LysRs assessed as bacterial growth inhibition by microdilution method", "assay_type": "functional, organism-based"}, "Staphylococcus aureus [4]": {"tested_on": "Staphylococcus aureus", "assay": "Antimicrobial activity against Methicillin-resistant Staphylococcus aureus assessed as bacterial growth inhibition by microtiter dilution plate method", "assay_type": "functional"}, "Staphylococcus aureus [5]": {"tested_on": "Staphylococcus aureus", "assay": "Antimicrobial activity against Methicillin-resistant Staphylococcus aureus assessed as bacterial growth inhibition by agar well diffusion method", "assay_type": "functional"}, "Staphylococcus aureus [6]": {"tested_on": "Staphylococcus aureus", "assay": "Antimicrobial activity against Methicillin-resistant Staphylococcus aureus ATCC 700699 assessed as bacterial growth inhibition incubated for 20 to 24 hrs by microdilution method", "assay_type": "functional", "details": "time 20-24 hrs"}, "Staphylococcus aureus [7]": {"tested_on": "Staphylococcus aureus", "assay": "Antimicrobial activity against Methicillin-resistant Staphylococcus aureus ATCC 33592 assessed as bacterial growth inhibition incubated for 20 to 24 hrs by microdilution method", "assay_type": "functional", "details": "time 20-24 hrs"}, "Staphylococcus aureus [8]": {"tested_on": "Staphylococcus aureus", "assay": "Antimicrobial activity against vancomycin intermediate-resistant Staphylococcus aureus assessed as bacterial growth inhibition incubated for 24 hrs by microdilution method", "assay_type": "functional"}, "Staphylococcus aureus [9]": {"tested_on": "Staphylococcus aureus", "assay": "Antimicrobial activity against Methicillin-resistant Staphylococcus aureus MW2 assessed as bacterial growth inhibition incubated for 18 hrs by microdilution method", "assay_type": "functional"}, "Staphylococcus aureus [10]": {"tested_on": "Staphylococcus aureus", "assay": "Antimicrobial activity against Methicillin-sensitive Staphylococcus aureus ATCC 25923 assessed as bacterial growth inhibition", "assay_type": "functional"}, "Staphylococcus aureus [11]": {"tested_on": "Staphylococcus aureus", "assay": "Antimicrobial activity against Methicillin-resistant Staphylococcus aureus BAA-2312 assessed as bacterial growth inhibition", "assay_type": "functional"}, "Staphylococcus aureus [12]": {"tested_on": "Staphylococcus aureus", "assay": "Antimicrobial activity against Methicillin-resistant Staphylococcus aureus ATCC 700699 assessed as bacterial growth inhibition", "assay_type": "functional"}, "Staphylococcus aureus [13]": {"tested_on": "Staphylococcus aureus", "assay": "Antimicrobial activity against Methicillin-resistant Staphylococcus aureus ATCC 33591 assessed as bacterial growth inhibition", "assay_type": "functional"}, "Staphylococcus aureus [14]": {"tested_on": "Staphylococcus aureus", "assay": "Antimicrobial activity against Methicillin-resistant Staphylococcus aureus ATCC 33592 assessed as bacterial growth inhibition", "assay_type": "functional"}, "Staphylococcus aureus [15]": {"tested_on": "Staphylococcus aureus", "assay": "Antimicrobial activity against Methicillin-resistant Staphylococcus aureus ATCC 33591 assessed as bacterial growth inhibition incubated for 20 to 24 hrs by microdilution method", "assay_type": "functional", "details": "time 20-24 hrs"}, "Staphylococcus aureus [16]": {"tested_on": "Staphylococcus aureus", "assay": "Antimicrobial activity against Methicillin-resistant Staphylococcus aureus assessed as bacterial growth inhibition incubated for 24 hrs by microdilution method", "assay_type": "functional"}, "Staphylococcus aureus [17]": {"tested_on": "Staphylococcus aureus", "assay": "Antimicrobial activity against Methicillin-resistant Staphylococcus aureus assessed as bacterial growth inhibition incubated for 24 hrs by agar disc diffusion method", "assay_type": "functional"}, "Staphylococcus aureus [18]": {"tested_on": "Staphylococcus aureus", "assay": "Antimicrobial activity against Methicillin-resistant Staphylococcus aureus assessed as bacterial growth inhibition incubated for 24 hrs", "assay_type": "functional"}, "Staphylococcus aureus [19]": {"tested_on": "Staphylococcus aureus", "assay": "Antimicrobial activity against Methicillin-resistant Staphylococcus aureus CCARM 3506 assessed as bacterial growth inhibition incubated for 24 hrs by ELISA assay", "assay_type": "functional"}, "[20]": {"target": "T1, Dihydrofolate reductase (Homo sapiens) (UniProt P00374)", "T1 sequence (whole entry)": "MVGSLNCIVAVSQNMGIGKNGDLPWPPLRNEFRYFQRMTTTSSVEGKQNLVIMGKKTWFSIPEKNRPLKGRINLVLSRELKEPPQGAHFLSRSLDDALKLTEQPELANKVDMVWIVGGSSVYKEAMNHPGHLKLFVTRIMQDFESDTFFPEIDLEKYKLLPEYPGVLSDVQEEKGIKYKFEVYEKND", "assay": "Inhibition of human DHFR using TMB as substrate incubated for 1.5 hrs by ELISA assay relative to control", "details": "concentration not given here"}}, "note": "pIC50: −log10 of the molar value.", "data": [{"smiles": "O=C(O)c1ccc(-n2cc(/C=N/N(c3ccccc3)c3ccccc3)c(-c3cc4ccccc4oc3=O)n2)cc1", "values": [{"measurement": "MIC", "setting": "Staphylococcus aureus [1]", "result": 3.12, "unit": "µg/mL"}]}, {"smiles": "COc1ccc(Nc2n[nH]c(/N=C\\c3ccccc3)c2C(=O)Nc2ccc(C)cc2)cc1", "values": [{"measurement": "MIC", "setting": "Staphylococcus aureus [2]", "result": 15.6, "unit": "µg/mL"}]}, {"smiles": "CCc1c2[nH]c(=O)[nH]c(=O)c2nn1CC1CCC1", "values": [{"measurement": "pIC50", "setting": "Staphylococcus aureus [3]", "result": 4.66}]}, {"smiles": "c1ccc(-c2cnn3c4c(cnc23)CCCCCC4)cc1", "values": [{"measurement": "MIC", "setting": "Staphylococcus aureus [4]", "result": 9, "unit": "µg/mL"}, {"measurement": "inhibition zone (IZ)", "setting": "Staphylococcus aureus [5]", "result": 50, "unit": "mm"}]}, {"smiles": "O=C(O)c1ccc(-n2cc(/C=N/Nc3ccc([N+](=O)[O-])cc3)c(-c3cccc(F)c3)n2)cc1", "values": [{"measurement": "MIC", "setting": "Staphylococcus aureus [6]", "result": 0.78, "unit": "µg/mL"}]}, {"smiles": "O=C(O)c1ccc(-n2cc(/C=N/Nc3cccc(Cl)c3F)c(-c3cccc(F)c3)n2)cc1", "values": [{"measurement": "MIC", "setting": "Staphylococcus aureus [7]", "result": 0.78, "unit": "µg/mL"}]}, {"smiles": "CCCc1c(-c2ccc(O)cc2)nn(-c2ccc(O)cc2)c1-c1ccc(O)cc1", "note": "[PROPYLPYRAZOLETRIOL]", "values": [{"measurement": "MIC", "setting": "Staphylococcus aureus [8]", "result": 8, "unit": "µg/mL"}, {"measurement": "MIC", "setting": "Staphylococcus aureus [9]", "result": 8, "unit": "µg/mL"}]}, {"smiles": "O=C(O)c1ccc(-n2cc(/C=N\\N(c3ccccc3)c3ccccc3)c(-c3cc4cc(F)ccc4oc3=O)n2)cc1", "values": [{"measurement": "MIC", "setting": "Staphylococcus aureus [10]", "result": 3.12, "unit": "µg/mL"}, {"measurement": "MIC", "setting": "Staphylococcus aureus [11]", "result": 3.12, "unit": "µg/mL"}, {"measurement": "MIC", "setting": "Staphylococcus aureus [12]", "result": 3.12, "unit": "µg/mL"}, {"measurement": "MIC", "setting": "Staphylococcus aureus [13]", "result": 3.12, "unit": "µg/mL"}, {"measurement": "MIC", "setting": "Staphylococcus aureus [14]", "result": 3.12, "unit": "µg/mL"}]}, {"smiles": "O=C(O)c1ccc(-n2cc(/C=N/Nc3ccc(Cl)cc3Cl)c(-c3cccc(F)c3)n2)cc1", "values": [{"measurement": "MIC", "setting": "Staphylococcus aureus [15]", "result": 0.39, "unit": "µg/mL"}]}, {"smiles": "CCOC(=O)c1nn(-c2ccccc2)cc1C(=O)c1ccc(S(=O)(=O)c2ccccc2)cc1", "values": [{"measurement": "MIC", "setting": "Staphylococcus aureus [16]", "result": 25, "unit": "µg/mL"}, {"measurement": "inhibition zone (IZ)", "setting": "Staphylococcus aureus [17]", "result": 14, "unit": "mm"}]}, {"smiles": "Cc1nn(-c2ccccc2)c(Cl)c1/C=C(\\Br)C(=O)C1C(=O)N(C)C(=O)N(C)C1=O", "values": [{"measurement": "MIC", "setting": "Staphylococcus aureus [18]", "result": 25, "unit": "µg/mL"}]}, {"smiles": "Cc1nn(-c2ccc(Cl)cc2Cl)c(Oc2ccc(Cl)cc2Cl)c1C1N=C(N)NC(NCCc2ccccc2)=N1", "note": "(stereo not given)", "values": [{"measurement": "MIC", "setting": "Staphylococcus aureus [19]", "result": 0.5, "unit": "µg/mL"}, {"measurement": "inhibition", "setting": "[20]", "result": 43, "unit": "%"}]}]}
